We go through one compound from patent US11021445B2, “Carboxylic acid derivative as AT2R receptor antagonist” (SHANDONG DANHONG PHARMACEUTICAL CO., LTD., priority 2017, dated 2021).

The target in one series is T1, hAT2 (Homo sapiens, UniProt P50052).
T1 construct: expressed in transfected cells; host or cells: HEK-293
T1 sequence (P50052 1-363): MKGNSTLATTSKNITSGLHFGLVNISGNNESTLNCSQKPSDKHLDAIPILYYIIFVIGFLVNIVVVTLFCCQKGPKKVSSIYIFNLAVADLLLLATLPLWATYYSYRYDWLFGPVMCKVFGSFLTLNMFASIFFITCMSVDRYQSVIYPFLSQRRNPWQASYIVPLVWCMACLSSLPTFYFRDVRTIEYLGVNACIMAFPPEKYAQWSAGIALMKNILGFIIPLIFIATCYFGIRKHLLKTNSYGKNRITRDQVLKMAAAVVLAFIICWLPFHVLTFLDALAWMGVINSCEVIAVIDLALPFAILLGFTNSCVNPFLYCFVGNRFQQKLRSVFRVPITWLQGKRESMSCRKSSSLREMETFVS
The experiment in a line: hAT2 receptor binding assay (SPA, [125I]-Sar1-Ile8-Angiotensin II). Conditions: membrane of HEK-293 cells overexpressing hAT2; 0.1 nM 125I ligand. As to the method:
hAT2 Receptor Binding Assay
Protease inhibitor mixture, free of ethylenediaminetetraacetic acid-1 tablets (Roche #11873580001) (50 mL plus one piece)
Experimental Methods and Steps
The reference ligand PD123319 and the test compound were prepared into a 750 μM mother liquor by DMSO; each compound was prepared into a solution of 8 concentration gradients (up to a concentration of 750 μM, 3-fold dilution) and 10 μl of the solution was added to a master of a 384-well plate per well.
The SPA beads were prepared to a mother liquor of 25 mg/ml by the buffer;
The isotope [^125I]-Sar1-Ile8-Angiotensin II was prepared into a mother liquor of 50 μCi/ml by adding pure water.
The cell membrane overexpressing hAT2 in HEK-293 cells was prepared to 2.5 mg/ml by the buffer.
200 nl of compound was aspirated from the mother plate with ECHO to each well of the 384-well test plate. ZPE was added to an equal volume of DMSO. (The concentration of the test compound in the reaction was diluted by 250 times).
A 50 ml membrane solution containing 10 μg/μl of magnetic beads and 0.05 μg/μl of AT2 was prepared, placed on a shaker and uniformly mixed. (100 rpm, 30 min). The test plate finally contained an hAT2 membrane with 1.25 μg/well and magnetic beads with 250 μg/well.
A 3.2 ml membrane liquid mixture was added to the compound test plate by using a Multidrop Combi pipette, and 25 μl was added to each well.
A 0.2 nM solution was prepared with 50 μCi/ml of isotope [^125I]-Sar1-Ile8-Angiotensin II mother liquor by the buffer, and 0.2 nM of ^125I was added to the compound test plate with a Multidrop Combi pipette. A volume of 25 μl was added to each well. The final concentration of ^125I isotope is 0.1 nM.
The prepared test plate was placed on a shaker overnight at room temperature at 200 rpm.
The test plate was centrifuged with a centrifuge at 1200 rpm for 1 min.
The centrifuged test plate was read with Microbeta.

The nature of series [1]: Determination of kinetic solubility. In kind it is physicochemical. The following applies: buffer solution pH 7.4, aqueous buffer, kinetic from dmso stock, pH 7.4, 24 hours at room temperature, theoretical maximum 200 μM. The method, then:
The to-be-tested compound was dissolved in DMSO to prepare a 10 mmol/L stock solution. 980 μL of dissolution medium was pipetted into a 2 mL screw-capped glass vial by using a pipette (Eppendorf Research Company). 20 μL of the stock solution of each test compound and the QC sample were added to a buffer solution corresponding to a kinetic detection solution of pH 7.4. The final concentrations of the test compound and DMSO solution were 200 μM and 2%, respectively. The cover of the medicine bottle was screwed. The theoretical maximum concentration is 200 μM. The mixture was shaken at 880 rpm for 24 hours at room temperature. The vial was centrifuged for 30 minutes at 13,000 rpm. 200 μL of the supernatant was added to a 96-well plate by using a digital pipette. The solubility of the test compound was determined by high performance liquid chromatography, and the experimental results are shown in Table 2.

Series [2] can be described thus: Plasma protein binding rate (PPB) test, equilibrium dialysis. Conditions: human, 37°C. It is filed as in vitro ADME. As to the method:
(§1) In vitro protein binding rates of 0.2 μM, 2 μM, 10 μM of test compounds with Sprague-Dawley rats, beagle dogs, human plasma were determined by equilibrium dialysis.
(§2) The experiment will use a 96-well equilibrium dialysis plate (HTDialysis device) to determine the plasma protein binding rate of the to-be-tested compound and the control compounds.
(§3) Prior to the start of the experiment, the dialysis membrane was pretreated according to the instructions for use and the dialysis unit was assembled as required.
(§4) Blank plasma was taken from CD-1 mice, Sprague-Dawley rats, Beagle dogs, cynomolgus monkeys and humans (an anticoagulant is EDTA-K2, which is a commercial product purchased, or is collected and prepared by the Drug Evaluation Department of Wuxi AppTech, and is stored in a refrigerator below −60° C. before use). A certain volume of the to-be-tested compound or the control compound working solution was added to prepare plasma samples of the compound to be tested at a concentration of 0.2, 2, 10 μM and plasma samples of the control compound at a concentration of 2 μM (n=1). The organic phase content was ≤1%. First, a certain volume of a plasma sample containing the to-be-tested compound and the control compound was taken out into the sample receiving plate as a sample at zero time (T0 sample, n=3); secondly, a plasma sample containing the to-be-tested compound and the control compound was added to one side of the dialysis membrane (plasma end, n=3), and a certain volume of dialysis buffer (buffer end, n=3) was added to the other side of the dialysis membrane; then the dialysis plate was placed in a humidified incubator with 5% CO2 for incubation for 4 hours at 37±1° C.
(§5) After the incubation, a certain volume of the dialyzed buffer sample (F sample) and the dialyzed plasma sample (T sample) were transferred to the sample receiving plate, and all samples were subjected to protein precipitation for LC/MS/MS analysis. And the dissociation rate of the compound (% Unbound) was calculated by the following formula: % Unbound=100*[F]/[T], % Bound=100−% Unbound. Wherein, % Unbound is the dissociation rate of the compound; % Bound is the binding rate of the compound; [F] is the concentration of the compound at the buffer end of the dialysis plate; [T] is the concentration of the compound at the plasma end of the dialysis plate; and the experimental results are shown in Table 7.
(In general: In equilibrium dialysis free small molecules cross a membrane that holds back macromolecules.)

Assay in series [3]: as above
In kind it is in vitro ADME, Sprague-Dawley rats. Conditions: Sprague-Dawley, rat, 37°C, read-out: Plasma Protein Binding (%) SD Rat Plasma (converted). As to the method: as §1, §2, §3, §4, §5

Each structure is given as a SMILES string. Where two headings read alike, the source gives them in different places. Some results are limits rather than exact numbers.

As a reminder, the IC50 is the concentration needed to halve the response being measured. A low value points to inhibition by little substance. A word on the solubility: it is the concentration that dissolves in the medium under given conditions. High values mean much dissolved substance, low ones little dissolved substance. Compound `N#Cc1ccc2c(c1OCc1ccccc1)C[C@@H](C(=O)O)N(C(=O)[C@H](OC1CCCC1)c1ccccc1)C2` [Compound 111] came in with a half-maximal inhibitory concentration (IC50) at hAT2 of 15.9 nM. The same compound came in with a solubility at 24 h in series [1] greater than 200 µM. Moreover, the fraction unbound at 4 h in series [2] and in series [3] was 0.002 throughout.
